In patent US9145373B2, “Certain kynurenine-3-monooxygenase inhibitors, pharmaceutical compositions, and methods of use thereof” (CHDI FOUNDATION, INC., priority 2008, dated 2015):

Target: T1, KMO mouse enzyme (Mus musculus, UniProt Q91WN4)
T1 construct: KMO enzyme prepared at Evotec from mouse liver (4-6 weeks old) via mitochondria isolation; from tissue; host or cells: mouse liver (4-6 weeks old), mitochondria isolation, prepared at Evotec
Experiment: KMO mouse enzyme assay: L-Kynurenine hydroxylation to 3-Hydroxy-Kynurenine monitored by LC/MS (MRM)
Assay type: biochemical
Conditions: compound at 10 μM; KMO enzyme from mouse liver mitochondria; read-out: INH.Mouse @ 10 μM
Experimental: A method of monitoring L-Kynurenine (KYN) hydroxylation to form 3-Hydroxy-Kynurenine (3OH-KYN) by LC/MS is described. Product is quantified by multiple reaction monitoring (MRM method).
• Compound: Stock concentrations: 10 mM in 100% DMSO • Enzyme: KMO enzyme prepared at Evotec from mouse liver (4-6 weeks old) via mitochondria isolation as described in the literature • Substrate: L-Kynurenine (Sigma: Cat# K3750, stock concentration: 10 mM in 100 mM potassium phosphate buffer, pH 7.4) Assay Conditions: […]

T1 sequence (Q91WN4 whole entry): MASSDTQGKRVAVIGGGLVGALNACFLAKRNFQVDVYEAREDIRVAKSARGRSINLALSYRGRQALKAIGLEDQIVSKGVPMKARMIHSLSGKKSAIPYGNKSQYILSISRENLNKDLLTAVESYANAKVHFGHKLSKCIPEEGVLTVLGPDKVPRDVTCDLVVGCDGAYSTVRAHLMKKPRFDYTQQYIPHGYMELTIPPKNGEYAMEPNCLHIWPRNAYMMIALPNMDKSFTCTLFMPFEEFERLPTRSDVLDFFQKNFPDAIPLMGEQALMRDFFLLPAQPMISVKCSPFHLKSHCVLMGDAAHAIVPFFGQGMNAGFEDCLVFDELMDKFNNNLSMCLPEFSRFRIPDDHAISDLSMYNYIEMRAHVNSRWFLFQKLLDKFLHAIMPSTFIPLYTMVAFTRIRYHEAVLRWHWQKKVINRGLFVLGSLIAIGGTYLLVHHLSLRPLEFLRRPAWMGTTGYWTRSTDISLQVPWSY

Row | SMILES | inhibition at 10 µM
1 | O=C(Nc1cccnc1)c1cc(-c2ccc(C(F)(F)F)c(Cl)c2)ncn1 [6-(3-Chloro-4-trifluoromethyl-phenyl)-pyrimidine-4-carboxylic acid pyridin-3-ylamide] | 48.3%
2 | COC(=O)c1cc(-c2cccc(Cl)c2)nc(C)n1 [6-(3-Chloro-phenyl)-2-methyl-pyrimidine-4-carboxylic acid methyl ester] | 100%
3 | Cc1nc(C(=O)O)cc(-c2cccc(Cl)c2)n1 [6-(3-Chloro-phenyl)-2-methyl-pyrimidine-4-carboxylic acid] | 100%
4 | Cn1ccc(NC(=O)c2cc(-c3cccc(Cl)c3)ncn2)n1 [6-(3-Chloro-phenyl)-pyrimidine-4-carboxylic acid (1-methyl-1H-pyrazol-3-yl)-amide] | 100%
5 | Cn1cc(NC(=O)c2cc(-c3cccc(Cl)c3)ncn2)cn1 [6-(3-Chloro-phenyl)-pyrimidine-4-carboxylic acid (1-methyl-1H-pyrazol-4-yl)-amide] | 100%
6 | O=C(Nc1ccc2c(c1)OC(F)(F)O2)c1cc(-c2cccc(Cl)c2)ncn1 [6-(3-Chloro-phenyl)-pyrimidine-4-carboxylic acid (2,2-difluoro-benzo[1,3]dioxol-5-yl)-amide] | 97.7%
7 | CN(C(=O)c1cc(-c2cccc(Cl)c2)ncn1)c1ccc2c(c1)OC(F)(F)O2 [6-(3-Chloro-phenyl)-pyrimidine-4-carboxylic acid (2,2-difluoro-benzo[1,3]dioxol-5-yl)-methyl-amide] | 98.7%
8 | O=C(NCCO)c1cc(-c2cccc(Cl)c2)ncn1 [6-(3-Chloro-phenyl)-pyrimidine-4-carboxylic acid (2-hydroxy-ethyl)-amide] | 95.8%
9 | COc1ccccc1NC(=O)c1cc(-c2cccc(Cl)c2)ncn1 [6-(3-Chloro-phenyl)-pyrimidine-4-carboxylic acid (2-methoxy-phenyl)-amide] | 100%
10 | Cc1ncccc1NC(=O)c1cc(-c2cccc(Cl)c2)ncn1 [6-(3-Chloro-phenyl)-pyrimidine-4-carboxylic acid (2-methyl-pyridin-3-yl)-amide] | 97.8%
11 | Cc1noc(C)c1NC(=O)c1cc(-c2cccc(Cl)c2)ncn1 [6-(3-Chloro-phenyl)-pyrimidine-4-carboxylic acid (3,5-dimethyl-isoxazol-4-yl)-amide] | 79%
12 | COc1cccc(NC(=O)c2cc(-c3cccc(Cl)c3)ncn2)c1 [6-(3-Chloro-phenyl)-pyrimidine-4-carboxylic acid (3-methoxy-phenyl)-amide] | 97.1%
13 | Cc1nsc(NC(=O)c2cc(-c3cccc(Cl)c3)ncn2)n1 [6-(3-Chloro-phenyl)-pyrimidine-4-carboxylic acid (3-methyl-[1,2,4]thiadiazol-5-yl)-amide] | 85.4%
14 | Cc1cc(NC(=O)c2cc(-c3cccc(Cl)c3)ncn2)on1 [6-(3-Chloro-phenyl)-pyrimidine-4-carboxylic acid (3-methyl-isoxazol-5-yl)-amide] | 100%
15 | O=C(Nc1ccc(F)cc1)c1cc(-c2cccc(Cl)c2)ncn1 [6-(3-Chloro-phenyl)-pyrimidine-4-carboxylic acid (4-fluoro-phenyl)-amide] | 98.9%
16 | COc1ccc(NC(=O)c2cc(-c3cccc(Cl)c3)ncn2)cc1 [6-(3-Chloro-phenyl)-pyrimidine-4-carboxylic acid (4-methoxy-phenyl)-amide] | 100%
17 | COc1ccc(N(C)C(=O)c2cc(-c3cccc(Cl)c3)ncn2)cc1 [6-(3-Chloro-phenyl)-pyrimidine-4-carboxylic acid (4-methoxy-phenyl)-methyl-amide] | 100%
18 | COc1ccncc1NC(=O)c1cc(-c2cccc(Cl)c2)ncn1 [6-(3-Chloro-phenyl)-pyrimidine-4-carboxylic acid (4-methoxy-pyridin-3-yl)-amide] | 91%
19 | O=C(Nc1ccc(N2CCOCC2)cc1)c1cc(-c2cccc(Cl)c2)ncn1 [6-(3-Chloro-phenyl)-pyrimidine-4-carboxylic acid (4-morpholin-4-yl-phenyl)-amide] | 93.6%
20 | COc1cncc(NC(=O)c2cc(-c3cccc(Cl)c3)ncn2)c1 [6-(3-Chloro-phenyl)-pyrimidine-4-carboxylic acid (5-methoxy-pyridin-3-yl)-amide] | 100%
21 | Cc1nnc(NC(=O)c2cc(-c3cccc(Cl)c3)ncn2)o1 [6-(3-Chloro-phenyl)-pyrimidine-4-carboxylic acid (5-methyl-[1,3,4]oxadiazol-2-yl)-amide] | 100%
22 | COc1ccc(NC(=O)c2cc(-c3cccc(Cl)c3)ncn2)cn1 [6-(3-Chloro-phenyl)-pyrimidine-4-carboxylic acid (6-methoxy-pyridin-3-yl)-amide] | 93.4%
23 | Cc1ccc(NC(=O)c2cc(-c3cccc(Cl)c3)ncn2)cn1 [6-(3-Chloro-phenyl)-pyrimidine-4-carboxylic acid (6-methyl-pyridin-3-yl)-amide] | 85.3%
24 | O=C(Nc1ccc(C(F)(F)F)nc1)c1cc(-c2cccc(Cl)c2)ncn1 [6-(3-Chloro-phenyl)-pyrimidine-4-carboxylic acid (6-trifluoromethyl-pyridin-3-yl)-amide] | 89.1%

Row | SMILES | inhibition at 10 µM
25 | C[C@@H](NC(=O)c1cc(-c2cccc(Cl)c2)ncn1)c1ccccc1 [6-(3-Chloro-phenyl)-pyrimidine-4-carboxylic acid ((R)-1-phenyl-ethyl)-amide] | 99.2%
26 | C[C@@H](O)CNC(=O)c1cc(-c2cccc(Cl)c2)ncn1 [6-(3-Chloro-phenyl)-pyrimidine-4-carboxylic acid ((R)-2-hydroxy-propyl)-amide] | 74.3%
27 | C[C@H](NC(=O)c1cc(-c2cccc(Cl)c2)ncn1)c1ccccc1 [6-(3-Chloro-phenyl)-pyrimidine-4-carboxylic acid ((S)-1-phenyl-ethyl)-amide] | 99.8%
28 | C[C@H](O)CNC(=O)c1cc(-c2cccc(Cl)c2)ncn1 [6-(3-Chloro-phenyl)-pyrimidine-4-carboxylic acid ((S)-2-hydroxy-propyl)-amide] | 87.3%
29 | O=C(NCc1cccnc1)c1cc(-c2cccc(Cl)c2)ncn1 [6-(3-Chloro-phenyl)-pyrimidine-4-carboxylic acid (pyridin-3-ylmethyl)-amide] | 96.7%
30 | O=C(NCc1ccncc1)c1cc(-c2cccc(Cl)c2)ncn1 [6-(3-Chloro-phenyl)-pyrimidine-4-carboxylic acid (pyridin-4-ylmethyl)-amide] | 100%
31 | O=C(Nc1nncs1)c1cc(-c2cccc(Cl)c2)ncn1 [6-(3-Chloro-phenyl)-pyrimidine-4-carboxylic acid [1,3,4]thiadiazol-2-ylamide] | 97.4%
32 | NC(=O)c1cc(-c2cccc(Cl)c2)ncn1 [6-(3-Chloro-phenyl)-pyrimidine-4-carboxylic acid amide] | 77.5%
33 | O=C(NCc1ccccc1)c1cc(-c2cccc(Cl)c2)ncn1 [6-(3-Chloro-phenyl)-pyrimidine-4-carboxylic acid benzylamide] | 67%
34 | CN(C)C(=O)c1cc(-c2cccc(Cl)c2)ncn1 [6-(3-Chloro-phenyl)-pyrimidine-4-carboxylic acid dimethylamide] | 100%
35 | CCNC(=O)c1cc(-c2cccc(Cl)c2)ncn1 [6-(3-Chloro-phenyl)-pyrimidine-4-carboxylic acid ethylamide] | 100%
36 | CC(C)NC(=O)c1cc(-c2cccc(Cl)c2)ncn1 [6-(3-Chloro-phenyl)-pyrimidine-4-carboxylic acid isopropylamide] | 100%
37 | O=C(Nc1ccon1)c1cc(-c2cccc(Cl)c2)ncn1 [6-(3-Chloro-phenyl)-pyrimidine-4-carboxylic acid isoxazol-3-ylamide] | 100%
38 | Cc1cccc(NC(=O)c2cc(-c3cccc(Cl)c3)ncn2)c1 [6-(3-Chloro-phenyl)-pyrimidine-4-carboxylic acid m-tolylamide] | 96.6%
39 | COC(=O)c1cc(-c2cccc(Cl)c2)ncn1 [6-(3-Chloro-phenyl)-pyrimidine-4-carboxylic acid methyl ester] | 106%
40 | Cc1ccc(N(C)C(=O)c2cc(-c3cccc(Cl)c3)ncn2)cc1 [6-(3-Chloro-phenyl)-pyrimidine-4-carboxylic acid methyl-p-tolyl-amide] | 100%
41 | CN(C(=O)c1cc(-c2cccc(Cl)c2)ncn1)c1ccccc1 [6-(3-Chloro-phenyl)-pyrimidine-4-carboxylic acid methyl-phenyl-amide] | 100%
42 | CN(C(=O)c1cc(-c2cccc(Cl)c2)ncn1)c1cccnc1 [6-(3-Chloro-phenyl)-pyrimidine-4-carboxylic acid methyl-pyridin-3-yl-amide] | 95.2%
43 | CNC(=O)c1cc(-c2cccc(Cl)c2)ncn1 [6-(3-Chloro-phenyl)-pyrimidine-4-carboxylic acid methylamide] | 100%
44 | Cc1ccccc1NC(=O)c1cc(-c2cccc(Cl)c2)ncn1 [6-(3-Chloro-phenyl)-pyrimidine-4-carboxylic acid o-tolylamide] | 96.2%
45 | O=C(Nc1ncco1)c1cc(-c2cccc(Cl)c2)ncn1 [6-(3-Chloro-phenyl)-pyrimidine-4-carboxylic acid oxazol-2-ylamide] | 100%
46 | Cc1ccc(NC(=O)c2cc(-c3cccc(Cl)c3)ncn2)cc1 [6-(3-Chloro-phenyl)-pyrimidine-4-carboxylic acid p-tolylamide] | 100%
47 | O=C(Nc1ccccc1)c1cc(-c2cccc(Cl)c2)ncn1 [6-(3-Chloro-phenyl)-pyrimidine-4-carboxylic acid phenylamide] | 100%
